Experimental data: article PMC10165273, “Itch receptor MRGPRX4 interacts with the receptor activity–modifying proteins” (The Journal of Biological Chemistry, 2023)
Values joined by “and” are separate entries in the source; they are usually repeats but may differ in a detail not shown here. Identical values can stand only once. Like-named read-outs stand apart in the source and are kept apart here.

Columns and labels:
[1] = target: T1, MRGPRX4 + RAMP3 (Homo sapiens, UniProt Q96LA9); assay: IP1 accumulation, MRGPRX4 coexpressed with RAMP3; assay type: cell-based; settings: MRGPRX4 + RAMP3 2 pg (Fig. S3), normalized per agonist
T1 construct: expressed in transfected cells; host or cells: HEK293T
Experimental: (§1) HEK293T cells were transfected with 1 pg/cell of MRGPRX4 DNA, and the amount of DNA was kept constant at 2 pg/cell with pcDNA3.1(+) empty vector, unless otherwise specified. Twenty four hours after transfection, IP1 assay was performed as previously described ([51]). When applicable, cells were treated with 1 μM YM254890 (YM) or different concentrations of U73122 for 1 h prior to addition of agonist or buffer. After incubation for 2 h, HTRF reagents and IP1 calibration standards were added and incubated for 2 h in the dark at room temperature. Time-resolved fluorescence signals were read on the BioTek Synergy NEO-TRF Hybrid multi-mode reader (BioTek Instruments). All data were carried out in three independent experiments with three technical replicate each.
(§2) For RAMP DNA titration assay, HEK293T cells were cotransfected with a constant amount of 1 pg/cell of FLAG-MRGPRX4-GFP10-1D4 to which a serial dilution of 1, 0.75, 0.5, 0.25, or 0 pg/cell of each HA-RAMP-OLLAS was added. For a homogenous transfection of MRGPRX4, a master mix of MRGPRX4 DNA was made prior to addition of the RAMP DNA. […]
(§3) Data reduction, standard calibration, and transformation of HTRF data were performed as previously described ([51]). Normalized IP1 values were calculated relative to the unstimulated mock-transfected cells (set to 0%) and fully stimulated MRGPRX4 (alone if applicable) (set to 100%).

[2] = target: T2, MRGPRX4 + RAMP2 (Homo sapiens, UniProt Q96LA9); assay: IP1 accumulation, MRGPRX4 coexpressed with RAMP2; assay type: cell-based; design: key to response to agonist, X4:ramp2.I:2: % IP1: mock-transfected unstimulated = 0%, fully stimulated MRGPRX4 = 100%; key to IP1 Basal / response to agonist, X4:ramp2.I:0.25 / response to agonist, X4:ramp2.I:0.5 / response to agonist, X4:ramp2.I:1: % IP1; unstimulated mock = 0%, fully stimulated MRGPRX4 = 100%; settings: for activation at 20 µM / activation at 4 µM / activation at 0.8 µM / activation at […] / activation at 0.032 µM / activation at 100 µM: 2 h, Fig S3e, read-out: IP1 accumulation; for activation at 20 µM: log [DCA] (M) -4.69897; for activation at 4 µM: log [DCA] (M) -5.39794; for activation at 0.8 µM: log [DCA] (M) -6.09691; for activation at […]: log [DCA] (M) -6.79588; for activation at 0.032 µM: log [DCA] (M) -7.49485; for activation at 100 µM: log [DCA] (M) -4; for IP1 Basal / IP1 span (Emax minus basal) / Emax: normalized per agonist; for Emax: read-out: IP1 Emax
T2 construct: expressed in transfected cells; host or cells: HEK293T
Experimental: as §1, §2, §3

[3] = MRGPRX4 + RAMP2 0.25 pg (Fig. S3)
[4] = MRGPRX4 + RAMP2 0.5 pg (Fig. S3)

T2 sequence (Q96LA9 whole entry): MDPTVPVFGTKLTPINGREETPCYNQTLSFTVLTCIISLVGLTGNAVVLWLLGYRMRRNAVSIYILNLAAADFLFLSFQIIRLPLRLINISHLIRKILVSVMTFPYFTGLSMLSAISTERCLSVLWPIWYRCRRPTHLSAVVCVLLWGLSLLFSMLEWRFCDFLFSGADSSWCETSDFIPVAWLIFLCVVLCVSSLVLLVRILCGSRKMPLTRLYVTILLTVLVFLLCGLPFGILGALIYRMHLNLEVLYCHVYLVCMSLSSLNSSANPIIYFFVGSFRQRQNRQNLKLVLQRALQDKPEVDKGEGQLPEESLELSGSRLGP
T1 sequence (Q96LA9 whole entry): as above

## C[C@H](CCC(=O)O)[C@H]1CC[C@H]2[C@@H]3CC[C@@H]4C[C@H](O)CC[C@]4(C)[C@H]3C[C@H](O)[C@]12C [DCA, deoxycholic acid]
[1]
  IP1 span (top minus basal of the concentration-response fit): 85.8%
[1]; read-out: IP1 Emax
  Emax: 100%
[2]; ratio MRGPRX4:RAMP2 1:0.25
  activation at 20 µM: 59.5%
  activation at 4 µM: 39%
  activation at 0.8 µM: 28.2%
  activation at […]: 28.2%
  activation at 0.032 µM: 29.4%
[2]; ratio MRGPRX4:RAMP2 1:0.5
  activation at 20 µM: 51.9%
  activation at 4 µM: 28.9%
  activation at 0.8 µM: 21.9%
  activation at […]: 21.5%
[2]; ratio MRGPRX4:RAMP2 1:1
  activation at 100 µM: 56.6%
  activation at 20 µM: 35%
  activation at 0.8 µM: 13.8%
  activation at […]: 13.1%
  activation at 0.032 µM: 13.2%
[2]; ratio MRGPRX4:RAMP2 1:2
  activation at 100 µM: 20.6%
  activation at 20 µM: 10.3%
  activation at 4 µM: 5.86%
  activation at […]: 6.3%
  activation at 0.032 µM: 5.62%
[2]; Figure 4c-f, agonist 100µM, X4:ramp2 1:0.25, MRGPRX4 = 100
  response to agonist, X4:ramp2.I:0.25: 82.2333 and 78.588
[2]; Figure 4c-f, agonist 100µM, X4:ramp2 1:0.5, MRGPRX4 = 100
  response to agonist, X4:ramp2.I:0.5: 59.4831 and 67.5869
[2]; Figure 4c-f, agonist 100µM, X4:ramp2 1:1, MRGPRX4 = 100
  response to agonist, X4:ramp2.I:1: 42.5729 and 40.2351
[2]; Figure 4c-f, agonist 100µM, X4:ramp2 1:2, MRGPRX4 = 100
  response to agonist, X4:ramp2.I:2: 19.2213 and 20.608
[2]; [3]
  IP1 Basal: 22.40
  IP1 span (Emax minus basal): 84.8%
  Emax: 107%
[2]; [4]
  IP1 Basal: 17.50
  IP1 span (Emax minus basal): 77%
  Emax: 94.5%
[2]; MRGPRX4 + RAMP2 1 pg (Fig. S3)
  IP1 Basal: 11.18
  IP1 span (Emax minus basal): 45%
  Emax: 56.2%
[2]; MRGPRX4 + RAMP2 2 pg (Fig. S3)
  IP1 Basal: 5.412
  IP1 span (Emax minus basal): 24.4%
  Emax: 29.9%
